Four compounds from patent US20060247223A1, “Non-imidazole alkylamines as histamine H3- receptor ligands and their therapeutic applications” (priority 1998, published 2006) can be followed below.

The assay deals with T1, H3 receptor (Cavia porcellus, UniProt Q9JI35).
T1 construct: longitudinal muscle strips from guinea-pig small intestine were dissected out; from tissue; host or cells: guinea-pig small intestine longitudinal muscle strips
Description: guinea-pig ileum longitudinal muscle strips, electrically stimulated contraction, (R)α-methylhistamine curves with antagonist. It counts as biochemical. The settings on record: against (R)α-methylhistamine, 1 μM mepyramine present, read-out: H3-receptor antagonist activity pA2 (guinea-pig ileum) (converted). The protocol:
Briefly, longitudinal muscle strips from guinea-pig small intestine were dissected out and incubated in a gassed O2/CO2 (95%/5%) modified Krebs-Ringer's bicarbonate medium at +37° C. in presence of 1 μM mepyramine to block the H1 receptor. After equilibration, contractile activity under stimulation (rectangular pulses of 15 V, 0.5 msec, 0.1 Hz) was recorded. Concentration-response curves of the effect of (R)α-Methylhistamine alone or together with the antagonist were established.

T1 sequence (Q9JI35 whole entry): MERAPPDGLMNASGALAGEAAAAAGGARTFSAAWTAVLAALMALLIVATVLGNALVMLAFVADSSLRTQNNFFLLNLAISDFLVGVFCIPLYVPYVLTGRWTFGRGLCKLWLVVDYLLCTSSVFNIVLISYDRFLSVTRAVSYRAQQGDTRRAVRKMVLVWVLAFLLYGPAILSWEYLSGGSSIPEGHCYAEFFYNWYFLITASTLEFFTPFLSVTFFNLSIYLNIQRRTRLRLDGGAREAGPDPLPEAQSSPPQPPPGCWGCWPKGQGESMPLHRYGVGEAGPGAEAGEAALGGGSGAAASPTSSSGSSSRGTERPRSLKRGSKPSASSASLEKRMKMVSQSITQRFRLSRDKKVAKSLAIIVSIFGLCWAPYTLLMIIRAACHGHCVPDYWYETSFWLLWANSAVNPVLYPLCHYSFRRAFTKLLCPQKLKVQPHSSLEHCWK

Turning to `CCCCCNC(=O)OCCCN1CCCCC1` [Example 120, N-Pentyl-3-piperidinopropyl carbamate], the Kb was 501 nM.

Turning to `CCCCCCC(=O)N1CCC(N2CCCCC2)CC1` [Example 124, N-Heptanoyl-1,4′-bipiperidine], the Kb was 398 nM.

As for `c1ccc2sc(NCCN3CCCCC3)nc2c1` [Example 131, 2-((2-Piperidinoethyl)amino)benzothiazole], the Kb was 251 nM.

On to `c1ccc(CCCCCCN2CCCCC2)cc1` [Example 136, N-(6-Phenylhexyl)piperidine], for which the Kb is 316 nM.
